Reference: patent US20260088124A1, “TRANSCRIPTOMIC CLOCKS OF BIOLOGICAL AGE AND LIFESPAN” (The Brigham and Women's Hospital, Inc., priority 2022, published 2026)

Experiments:
young UM-HET3 male mice = test: Transcriptomic clock of expected maximum lifespan applied to liver and kidney of mice given compounds for 1 month; type: in vivo, mouse; conditions: 1 month treatment, data pooled across tissues, adjusted p-value <0.05, FIG. 6E
Source text: To examine if longevity of rodents can be predicted based on gene expression data, we used 1,030 liver samples of mice and rats with known maximum lifespan to construct transcriptomic clock of expected lifespan.
To test if the constructed clock can be used to identify new longevity interventions, we applied it to the liver and kidney samples obtained from young UM-HET3 male mice subjected to 25 different compounds for 1 month together with age-matched controls. These compounds were chosen using a CMAP platform^30 and gene expression signatures of longevity identified in our previous studies^31.

[1] = system: 25-month-old C57BL/6JNia mice; test: Survival study of old mice with compound added to the diet; type: in vivo, mouse; conditions: compound added to diet from 25 months of age; log-rank p-value <0.05; FIGS. 6F-H
mouse tissues = test: Change of biological age (tAge), lifespan-adjusted multi-tissue transcriptomic clock applied to RNAseq datasets of treated mice (ClockBase); type: in vivo; conditions: for effect on biological age (tAge) versus age-matched control mice: statistically significant effect on tAge, FIG. 6A
Source text: Preprocessing of the data prior to applying the clock included filtering of low-expressed genes using soft threshold (genes with less than 5 reads in more than 80% of samples were removed), mapping of gene IDs to the mouse Entrez IDs, RLE normalization (for RNA-seq data), log-transformation, scaling and ranking/YuGene transformation (optionally, for the corresponding clock models). Missing values corresponding to the clock genes not detected in the data were imputed with the average values precalculated during the training of the clock model.
Preprocessed gene expression profiles were used as an input for the clock, and tAges were returned by the model as an output. Differences between tAges of control and treated groups were assessed using linear regression model (for OSKM reprogramming datasets) and independent t-tests (for other applications). When multiple comparisons were assessed, obtained p-values were adjusted with Benjamini-Hochberg method.
To discover candidate interventions that slow down biological aging and extend mammalian lifespan and healthspan, we utilized ClockBase^25 and processed 1,349 publicly available RNAseq datasets corresponding to mouse tissues exposed to various pharmacological, dietary and genetic interventions. For every intervention, we used gene expression data to calculate tAges of subjected mice and compared them with tAges of age-matched control mice. […] In addition to the well-known lifespan-extending interventions, such as rapamycin, they included β3-adrenoceptor agonist CL 316,243^26,27 and the cardiac glycoside ouabain^28.

30-month-old mice = test: Healthspan of old mice (gait speed, frailty index); type: in vivo, mouse
[2] = cited from earlier work
aged rodents = conditions: cited from earlier work

Molecule | predicted effect on expected (maximum) lifespan according to the transcriptomic longevity clock (young UM-HET3 male mice) | effect on biological age (tAge) versus age-matched control mice (mouse tissues) | other results
COc1ccc(-c2ccc3c(N4CCOC[C@@H]4C)nc(N4CCOC[C@@H]4C)nc3n2)cc1CO [AZD-8055] | predicted to be beneficial for mouse longevity |  | lifespan of old male mice (survival) [1]: significantly extended lifespan
C[C@H](Cc1ccc2c(c1)OC(C(=O)[O-])(C(=O)[O-])O2)NC[C@H](O)c1cccc(Cl)c1.[Na+].[Na+] [CL 316,243] |  | decrease in biological age | 
COc1ccc(-c2ccc3c(N4CCOCC4)nc(N4C[C@@H](C)O[C@@H](C)C4)nc3n2)cc1CO [KU-0063794] | predicted to be beneficial for mouse longevity |  | lifespan of old male mice (survival) [1]: significantly extended lifespan; frailty index (30-month-old mice): decreased; gait speed (30-month-old mice): improved
CCCCCCCCCCCCCCCC(=O)OC[C@H](O)[C@H]1OC(=O)C(O)=C1O [ascorbyl-palmitate] | predicted to be beneficial for mouse longevity |  | 
C[C@@H]1O[C@@H](O[C@H]2C[C@@H](O)[C@]3(CO)[C@H]4[C@H](O)C[C@]5(C)[C@@H](C6=CC(=O)OC6)CC[C@]5(O)[C@@H]4CC[C@]3(O)C2)[C@H](O)[C@H](O)[C@H]1O [ouabain] |  | decrease in biological age | reduction of biological age (mouse tissues; 3-month treatment, 24-month-old mice, liver, FIG. 6B): ~20%; senolytic activity [2]: exhibit senolytic activity; physical function of aged rodents (aged rodents): improve physical function
Cc1onc(-c2ccccc2)c1-c1ccc(S(N)(=O)=O)cc1 [valdecoxib] | predicted to be beneficial for mouse longevity |  | 
interleukin 6: interleukin 6 injection |  | increase of biological age | 
